Results taken from paper PMC8409088 (ChemistryOpen, 2020).
Structures can show the parent of a compound that is named as a salt.

Target: glutaminyl cyclase (QC, QPCT) (Homo sapiens, UniProt Q16769)
Assay: glutamic dehydrogenase-coupled assay, NADH absorbance at […] nm
Assay type: biochemical

Chain of glutaminyl cyclase (QC, QPCT) (Q16769 33-361): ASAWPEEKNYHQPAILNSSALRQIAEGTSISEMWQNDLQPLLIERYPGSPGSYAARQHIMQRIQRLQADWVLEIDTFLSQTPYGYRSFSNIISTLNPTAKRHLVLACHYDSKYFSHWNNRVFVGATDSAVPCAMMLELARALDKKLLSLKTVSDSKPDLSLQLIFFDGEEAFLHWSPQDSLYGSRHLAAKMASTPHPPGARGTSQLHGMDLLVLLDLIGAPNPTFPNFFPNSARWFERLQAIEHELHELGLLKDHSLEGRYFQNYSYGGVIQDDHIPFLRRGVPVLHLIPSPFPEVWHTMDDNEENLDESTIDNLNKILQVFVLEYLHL

Structure (SMILES)	Ki
O=C(/C=C/c1cccc(S(=O)(=O)Nc2ccccc2)c1)NO [Belinostat (PXD101)]	2.98 ± 0.67 mM
Cc1cnc(C(=O)O)c[n+]1[O-] [Acipimox]	6.23 ± 0.85 mM
CC[C@@H]1C(=O)OC[C@@H]1Cc1cncn1C [Pilocarpine HCl]	13.2 ± 7.27 mM
Cc1cccc(Cc2c[nH]cn2)c1C [Detomidine HCl]	2.58 ± 0.28 mM
